According to patent US12599136B2, “Substituted isophthalic acid diamides and their use as herbicides” (Bayer Aktiengesellschaft, priority 2020, dated 2026):

Assays:
Assay type in all cases: in vivo
Polygonum convolvulus [1] = test: Post-emergence herbicidal action against POLCO; conditions: 20 g/ha, visual assessment about 3 weeks after treatment
Description: Seeds of monocotyledonous and dicotyledonous weed and crop plants are laid out in sandy loam soil in wood-fiber pots, covered with soil and cultivated in a greenhouse under good growth conditions. 2 to 3 weeks after sowing, the test plants are treated at the one-leaf stage. The compounds of the invention, formulated in the form of wettable powders (WP) or as emulsion concentrates (EC), are then sprayed onto the green parts of the plants in the form of an aqueous suspension or emulsion at a water application rate equivalent to 600 to 800 l/ha, with addition of 0.2% wetting agent. After the test plants have been left to stand in the greenhouse under optimal growth conditions for about 3 weeks, the action of the preparations is assessed visually in comparison to untreated controls (herbicidal action in percent (%): 100% activity=the plants have died, 0% activity=like control plants). […] The tables below illustrate, in an illustrative manner, the post-emergence herbicidal action of the compounds of the invention, the herbicidal activity being stated in percent.

Alopecurus myosuroides [2] = test: Pre-emergence herbicidal action against ALOMY; conditions: for Pre-emergence action against ALOMY: visual score after 3 weeks vs untreated controls
How it was run: (§1)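 Seeds sown in sandy loam, soil-covered; compound sprayed on soil surface pre-emergence. Application: WP/EC, 600–800 l/ha, 0.2% wetting agent. Readout: visual % damage at 3 weeks.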

Veronica persica [3] = test: Post-emergence herbicidal action against VERPE; conditions: visual assessment about 3 weeks after treatment
How it was run: (§2)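 Percent herbicidal action is rated by eye about 3 weeks after treatment against untreated controls, where 100% means dead plants and 0% means like controls. Plants in sandy loam are sprayed on green parts at the one-leaf stage with aqueous WP or EC preparations at 600 to 800 l/ha plus 0.2% wetting agent.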

Abutilon theophrasti [4] = test: Pre-emergence herbicidal action against ABUTH; conditions: for Pre-emergence action against ABUTH: visual score after 3 weeks vs untreated controls
How it was run: as §1

Viola tricolor [5] = test: Post-emergence herbicidal action against VIOTR
How it was run: as §2

Amaranthus retroflexus [6] = test: Pre-emergence herbicidal action against AMARE; conditions: visual score after 3 weeks vs untreated controls
How it was run: as §1

Setaria viridis [7] = test: Pre-emergence herbicidal action against SETVI
How it was run: as §1

Digitaria sanguinalis [8] = test: Post-emergence herbicidal action against DIGSA
How it was run: as §2

Pharbitis purpurea [9] = test: Pre-emergence herbicidal action against PHBPU; conditions: 80 g/ha; visual score after 3 weeks vs untreated controls
How it was run: as §1

Pharbitis purpurea [10] = test: Post-emergence herbicidal action against PHBPU
How it was run: as §2

Amaranthus retroflexus [11] = test: Post-emergence herbicidal action against AMARE; conditions: visual assessment about 3 weeks after treatment
How it was run: as §2

Avena fatua [12] = test: Post-emergence herbicidal action against AVEFA; conditions: for Post-emergence action against AVEFA in %: visual assessment about 3 weeks after treatment
How it was run: as §2

Matricaria inodora [13] = test: Pre-emergence herbicidal action against MATIN; conditions: for Pre-emergence action against MATIN: visual score after 3 weeks vs untreated controls
How it was run: as §1

Digitaria sanguinalis [14] = test: Pre-emergence herbicidal action against DIGSA
How it was run: as §1

Avena fatua [15] = test: Pre-emergence herbicidal action against AVEFA; conditions: for Pre-emergence action against AVEFA: visual score after 3 weeks vs untreated controls
How it was run: as §1

Viola tricolor [16] = test: Pre-emergence herbicidal action against VIOTR
How it was run: as §1

Echinochloa crus-galli [17] = test: Post-emergence herbicidal action against ECHCG; conditions: visual assessment about 3 weeks after treatment
How it was run: as §2

Echinochloa crus-galli [18] = test: Pre-emergence herbicidal action against ECHCG; conditions: for Pre-emergence action against ECHCG: visual score after 3 weeks vs untreated controls
How it was run: as §1

Alopecurus myosuroides [19] = test: Post-emergence herbicidal action against ALOMY
How it was run: as §2

Setaria viridis [20] = test: Post-emergence herbicidal action against SETVI; conditions: for Post-emergence action against SETVI in %: visual assessment about 3 weeks after treatment
How it was run: as §2

Abutilon theophrasti [21] = test: Post-emergence herbicidal action against ABUTH
How it was run: as §2

Lolium rigidum = test: Pre-emergence herbicidal action against LOLRI; conditions: 80 g/ha
How it was run: as §1

Matricaria inodora [22] = test: Post-emergence herbicidal action against MATIN; conditions: for Post-emergence action against MATIN in %: visual assessment about 3 weeks after treatment
How it was run: as §2

Polygonum convolvulus [23] = test: Pre-emergence herbicidal action against POLCO; conditions: 80 g/ha
How it was run: as §1

Veronica persica [24] = test: Pre-emergence herbicidal action against VERPE; conditions: 80 g/ha
How it was run: as §1

[25] = comparative experiment, pre-emergence, 20 g a.i./ha
[26] = comparative experiment, 5 g a.i./ha

CCn1nnnc1NC(=O)c1ccc(C(F)F)c(C(=O)N(C)C)c1Cl [Example 2-154]
Post-emergence action against POLCO in % (Polygonum convolvulus [1]): 90% | Pre-emergence action against ALOMY (Alopecurus myosuroides [2]; 20 g/ha): 80% | Pre-emergence action against ALOMY (Alopecurus myosuroides [2]; 80 g/ha): 100% | Herbicidal action against ALOMY (Alopecurus myosuroides [2]; [25]): 80 | Post-emergence action against VERPE in % (Veronica persica [3]; 5 g/ha): 80% | Post-emergence action against VERPE in % (Veronica persica [3]; 20 g/ha): 90% | Pre-emergence action against ABUTH (Abutilon theophrasti [4]; 20 g/ha): 100% | Pre-emergence action against ABUTH (Abutilon theophrasti [4]; 80 g/ha): 100% | Herbicidal action against ABUTH (Abutilon theophrasti [4]; [25]): 100 | Post-emergence action against VIOTR in % (Viola tricolor [5]; 5 g/ha): 90% | Post-emergence action against VIOTR in % (Viola tricolor [5]; 20 g/ha): 100% | Herbicidal action against VIOTR (Viola tricolor [5]; [26]): 80 | Pre-emergence action against AMARE (Amaranthus retroflexus [6]; 20 g/ha): 100% | Pre-emergence action against AMARE (Amaranthus retroflexus [6]; 80 g/ha): 100% | Pre-emergence action against SETVI (Setaria viridis [7]; 20 g/ha): 100% | Pre-emergence action against SETVI (Setaria viridis [7]; 80 g/ha): 100% | Herbicidal action against SETVI (Setaria viridis [7]; comparative experiment, 20 g a.i./ha): 100 | Post-emergence action against DIGSA in % (Digitaria sanguinalis [8]; 5 g/ha): 90% | Post-emergence action against DIGSA in % (Digitaria sanguinalis [8]; 20 g/ha): 90% | Pre-emergence action against PHBPU (Pharbitis purpurea [9]): 80% | Post-emergence action against PHBPU in % (Pharbitis purpurea [10]; 20 g/ha, visual assessment about 3 weeks after treatment): 80% | Herbicidal action against PHBPU (Pharbitis purpurea [10]; [26]): 70 | Post-emergence action against AMARE in % (Amaranthus retroflexus [11]; 5 g/ha): 90% | Post-emergence action against AMARE in % (Amaranthus retroflexus [11]; 20 g/ha): 100% | Post-emergence action against AVEFA in % (Avena fatua [12]; 5 g/ha): 80% | Post-emergence action against AVEFA in % (Avena fatua [12]; 20 g/ha): 100% | Herbicidal action against AVEFA (Avena fatua [12]; [26]): 80 | Pre-emergence action against MATIN (Matricaria inodora [13]; 20 g/ha): 90% | Pre-emergence action against MATIN (Matricaria inodora [13]; 80 g/ha): 100% | Herbicidal action against MATIN (Matricaria inodora [13]; [25]): 90 | Pre-emergence action against DIGSA (Digitaria sanguinalis [14]; 20 g/ha): 100% | Pre-emergence action against DIGSA (Digitaria sanguinalis [14]; 80 g/ha): 100% | Pre-emergence action against AVEFA (Avena fatua [15]; 20 g/ha): 80% | Pre-emergence action against AVEFA (Avena fatua [15]; 80 g/ha): 100% | Herbicidal action against AVEFA (Avena fatua [15]; [25]): 80 | Pre-emergence action against VIOTR (Viola tricolor [16]; 20 g/ha): 90% | Pre-emergence action against VIOTR (Viola tricolor [16]; 80 g/ha): 100% | Post-emergence action against ECHCG in % (Echinochloa crus-galli [17]; 5 g/ha): 80% | Post-emergence action against ECHCG in % (Echinochloa crus-galli [17]; 20 g/ha): 90% | Pre-emergence action against ECHCG (Echinochloa crus-galli [18]; 20 g/ha): 80% | Pre-emergence action against ECHCG (Echinochloa crus-galli [18]; 80 g/ha): 100% | Herbicidal action against ECHCG (Echinochloa crus-galli [18]; [25]): 80 | Post-emergence action against ALOMY (Alopecurus myosuroides [19]; 5 g/ha): 90% | Post-emergence action against ALOMY (Alopecurus myosuroides [19]; 20 g/ha): 90% | Herbicidal action against ALOMY (Alopecurus myosuroides [19]; [26]): 90 | Post-emergence action against SETVI in % (Setaria viridis [20]; 5 g/ha): 90% | Post-emergence action against SETVI in % (Setaria viridis [20]; 20 g/ha): 100% | Herbicidal action against SETVI (Setaria viridis [20]; [26]): 90 | Post-emergence action against ABUTH (Abutilon theophrasti [21]; 5 g/ha): 100% | Post-emergence action against ABUTH (Abutilon theophrasti [21]; 20 g/ha): 100% | Pre-emergence action against LOLRI (Lolium rigidum): 80% | Post-emergence action against MATIN in % (Matricaria inodora [22]; 5 g/ha): 80% | Post-emergence action against MATIN in % (Matricaria inodora [22]; 20 g/ha): 90% | Herbicidal action against MATIN (Matricaria inodora [22]; [26]): 80 | Pre-emergence action against POLCO (Polygonum convolvulus [23]): 80% | Pre-emergence action against VERPE (Veronica persica [24]): 90%
